Assay results from US7402674B2, “7-Phenylamino-4-quinolone-3-carboxylic acid derivatives, process for their preparation and their use as medicaments” (Sanofi-Aventis Deutschland GmbH,, priority 2004, dated 2008).

Biological target: T1, human glycogen phosphorylase a (Homo sapiens, UniProt P06737)
T1 sequence (P06737 1-847): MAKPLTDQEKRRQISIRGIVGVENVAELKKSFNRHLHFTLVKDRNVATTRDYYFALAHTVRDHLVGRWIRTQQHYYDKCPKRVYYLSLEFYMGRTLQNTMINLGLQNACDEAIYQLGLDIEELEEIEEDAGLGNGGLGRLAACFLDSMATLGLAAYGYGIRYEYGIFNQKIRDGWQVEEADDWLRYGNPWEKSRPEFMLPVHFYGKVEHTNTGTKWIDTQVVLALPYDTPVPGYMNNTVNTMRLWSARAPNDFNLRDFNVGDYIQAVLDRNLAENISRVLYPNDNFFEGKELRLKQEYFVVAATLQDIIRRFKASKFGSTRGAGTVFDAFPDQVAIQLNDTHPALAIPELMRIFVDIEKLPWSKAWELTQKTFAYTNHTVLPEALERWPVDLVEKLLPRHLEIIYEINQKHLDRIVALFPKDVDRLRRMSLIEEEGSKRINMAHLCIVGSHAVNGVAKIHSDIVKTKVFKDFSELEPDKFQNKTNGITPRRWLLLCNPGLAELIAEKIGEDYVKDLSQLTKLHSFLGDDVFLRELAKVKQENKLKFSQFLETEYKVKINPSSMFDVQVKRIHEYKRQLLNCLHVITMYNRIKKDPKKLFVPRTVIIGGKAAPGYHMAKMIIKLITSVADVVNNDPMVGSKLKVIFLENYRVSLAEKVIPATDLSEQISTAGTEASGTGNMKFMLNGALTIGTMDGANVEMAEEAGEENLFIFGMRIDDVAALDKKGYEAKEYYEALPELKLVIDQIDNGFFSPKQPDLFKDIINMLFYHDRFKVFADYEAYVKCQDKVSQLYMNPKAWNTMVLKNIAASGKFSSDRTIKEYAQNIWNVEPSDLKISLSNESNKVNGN
Assay: Glycogen phosphorylase a activity assay
Assay type: biochemical
Settings: 10 μM test substance; reverse direction (glycogen synthesis from glucose 1-phosphate, liberated inorganic phosphate)
Procedure: Glycogen Phosphorylase a Activity Assay
The effect of compounds on the activity of the active form of glycogen phosphorylase (GPa) was measured in the reverse direction by following the synthesis of glycogen from glucose 1-phosphate by determining the liberation of inorganic phosphate. All the reactions were carried out as duplicate determinations in microtiter plates with 96 wells (Half Area Plates, Costar No 3696), measuring the change in absorption owing to the formation of the reaction product at the wavelength specified hereinafter in a Multiskan Ascent Elisa Reader (Lab Systems, Finland).
In order to measure the GPa enzymic activity in the reverse direction, the general method of Engers et al. (Engers H D, Shechosky S, Madsen N B, Can J Biochem 1970 July; 48(7):746-754) was used to measure the conversion of glucose 1-phosphate into glycogen and inorganic phosphate, with the following modifications: human glycogen phosphorylase a (for example with 0.76 mg of protein/ml (Aventis Pharma Deutschland GmbH), dissolved in buffer solution E (25 mM β-glycerophosphate, pH 7.0, 1 mM EDTA and 1 mM dithiothreitol) was diluted with buffer T (50 mM Hepes, pH 7.0, 100 mM KCl, 2.5 mM EDTA, 2.5 mM MgCl2.6H2O) and addition of 5 mg/ml glycogen to a concentration of 10 μg of protein/ml. […] After incubation at 45° C. for 60 minutes, the absorption at 820 nm was measured. […]

1-Ethyl-6-(4-ethylphenylamino)-7-methyl-4-oxo-1,4-dihydro-[1,8]naphthyridine-3-carboxylate [Example 1]
% inhibition at 10 μM: 14%
